Like-named read-outs stand apart in the source and are kept apart here.
Assays:
[1] = Reaction with benzoyl peroxide (BPO) in solution; assay type: physicochemical; settings: at all three temperatures (35° C., room temperature, 5° C.); BPO 50-fold excess by weight
Method: The reaction of (i) tazarotene, tazarotene benzoate, hydroxy tazarotenic acid and tazarotene nicotinate with (ii) benzoyl peroxide (BPO) in 30% aqueous solutions was monitored at 35° C., room temperature and 5° C.
Individual solutions of each compound were prepared at approximately 0.25 mg/mL in acetonitrile:water (6:4 by volume). Reactions were initiated by mixing equal volumes of the test solution with an approximately 12 mg/mL solution of benzoyl peroxide (BPO) in acetonitrile:water (4:1 by volume). Therefore, the reaction solution contained approximately 0.125 mg/mL of the test compound and the BPO was at a 50-fold excess by weight (i.e. at the same ratio as a product containing 0.1% tazarotene and 5% BPO). Aliquots of the reaction solutions were stored at various temperatures protected from light.
Reactions were quenched by diluting 30 μL of the reaction solution to 50 mL with a diluent (acetonitrile:water in a ratio of 1:1 by volume) and storing the sample at 10° C. in the LC/MS sample tray or at 5° C. for storage. Duplicate samples were prepared at each time point (three at the start of the reaction) and the results were averaged together to generate a single value.
Samples were analyzed on a Waters Acquity UPLC with a Waters Xevo TQMS using an ESI source in the positive mode controlled by MassLynx V4.1 software. […]

[2] = test system: Reconstructed human epidermis (RHE) tissues; test: RT-qPCR gene expression of K10, K19, filaggrin, K4 and K13 in reconstructed human epidermis (RHE) cultures; assay type: cell-based; settings: 72 h, 2.83 mM in OD/10% DMSO, 6 μl
Method: Reconstructed human epidermis (RHE) tissues were cultured in-house as previously described by Poumay et al. Briefly, polycarbonate culture inserts (12 mm diameter and 0.4 μm pore size, Millipore) were filled with 150 μL of a suspension containing approximately 5×10^5 primary adult human keratinocytes. The inserts received another 500 μL of keratinocyte culture media and were placed in a 6-well plate (1 insert/well) containing 2.5 mL of RHE Growth Media (Epilife media +1.5 mM CaCl2). RHE cultures were incubated at 37° C. in a humidified atmosphere containing 5% CO2, for 24 hours. Subsequently (on Day 0), RHE cultures were exposed to the air-liquid interface by removing the RHE Growth Media from the top of the cultures, and replacing with 1.5 mL/well of RHE Growth Media containing 50 μg/mL vitamin C. Media was changed every other day until the cultures were dosed with Test Articles. A stock solution of 0.1% tazarotene (2.83 mM at 99.5% purity) in OD/10% DMSO was prepared. For tazarotene benzoate, hydroxytazarotenic acid, keto tazarotenic acid, keto tazarotene, and tazarotene nicotinate, a 10 mg/mL stock solution (in DMSO) was already prepared. From this stock solution, a 2.83 mM working solution (in octyldodecanol) was prepared. All other tested compounds were resuspended in DMSO and OD to obtain a final concentration of 2.83 mM in OD/10% DMSO. On Day 12, the cultures were placed in 60 mm petri dishes containing 3 mL of RHE Growth Media (+VitC). Test articles (6 μl) were applied to triplicate cultures and cultures were incubated at 37° C. for 72 hours. Untreated and OD alone served as negative controls. At the end of the incubation period, the growth media was collected and stored at −20° C. The tissues were cut in half: one half was placed in 10% NBF for histology, and the other half was placed in RNAlater™ solution for RT-qPCR. RNA was isolated and concentrations were determined using a NanoDrop spectrophotometer. In addition to using the same amount of RNA for each sample, data was normalized to internal GAPDH mRNA levels and is expressed as relative quantification (RQ) to untreated controls. RNA extracts from each replicate were amplified using RT-qPCR. The relative gene expression of five biomarkers was determined: Keratin 10, Keratin 19, Filaggrin, Keratin 4, and Keratin 13.

[3] = In vitro application of DUAC gel/TAZORAC cream mixture to split-thickness human skin; tazarotene and degradants quantified by LC/MS/MS; assay type: in vitro ADME
Method: An in vitro study was conducted to assess the formation of tazarotene degradants following the application of a mixture of DUAC gel and TAZORAC cream to human skin.
Equal portions of DUAC gel and TAZORAC cream were dispensed into a glass vial and mixed for approximately three minutes with a metal spatula to ensure a homogenous mixture. Samples of European DUAC gel and US DUAC gel were used in separate experiments. […] The test mixtures were then applied to the surface of split-thickness skin (˜0.25 mm) at a dose of 15.6 mg/cm^2 and spread evenly using a positive displacement pipette.
After 2 and 6 hours, the skin samples were washed, tape stripped twice, and then the epidermis was peeled from the dermis using a heat block. The skin samples were then extracted with acetonitrile overnight at 4° C. The distribution of tazarotene and its degradants within the epidermis, dermis and surface wash were quantified by LC/MS/MS with a 50 pg/mL LOQ. The experiments were performed under yellow light conditions. For the purposes of comparison, mixtures of DUAC gel and TAZORAC cream were also prepared and retained for stability testing at 0, 2 and 6 hour time points.

[4] = for k constant: HLM
Method: (§2) Hepatic microsomal reactions were carried out in microcentrifuge tubes in the following manner. Human liver microsomes (0.5 or 1.0 mg/ml protein), Test Article (1 or 10 μM), paraoxon (0, 10 or 100 μM), NADPH regenerating system (10 mM glucose-6-phosphate, 1 unit/ml glucose-6-phosphate dehydrogenase, 1 mM NADP^+), magnesium chloride (5 mM) in 0.1 M potassium phosphate buffer, pH 7.4 were incubated at 37° C. in a shaking water bath. Reactions were initiated with the addition of substrate with the exception of the zero-time incubations. The total reaction volume was 0.2 ml. The reactions were incubated for 15, 30, 45 or 60 minutes, terminated with 0.2 ml ice-cold acetonitrile and then placed on ice. For zero-time incubations, ice cold acetonitrile was added to the mixture containing microsomes, along with NADPH regenerating system, magnesium chloride in phosphate buffer and the Test Article. Each time point was carried out in triplicate.
(§3) Disappearance of Test Article and formation of metabolites following in vitro metabolism were determined by LC-MS/MS using multiple reaction monitoring. LightSight® software (Applied Biosystems, Foster City, Calif.) was used to generate the mass spectrometry methods and carry out the data mining.
(§4) Control incubations were carried out with the identical incubation procedures as described above with the following exceptions. In negative control reactions, microsomes were not included. […] Duplicate reactions with an initial concentration of 10 μM were incubated for 0 or 30 minutes. Microsomal metabolic stability of 7-ethoxycoumarin was determined by LC-MS/MS.

in vitro = settings: human, liver microsomes, pH 7.4, Half-life, HLM
Method: as §2, §3, §4

[5] = Stability in human plasma at room temperature; assay type: in vitro ADME
Method: (§1) Tazarotene, tazarotene sulfoxide and tazarotene benzoate were incubated at room temperature with human and rat plasma. The incubation was carried out in duplicate and samples were taken at specific time points for stability analyses (i) rat samples (0 hour, 2 hours and 4 hours) and (ii) human samples (0 hour, 2 hours, 4 hours and 8 hours). Samples were analyzed by LC-MS/MS.

[6] = Stability in rat plasma at room temperature; assay type: in vitro ADME
Method: as §1

[7] = HPLC analysis of mixtures of DUAC gel and TAZORAC cream (degradation of tazarotene in the presence of benzoyl peroxide); assay type: physicochemical; settings: fresh samples; 35° C.; 4 hours
Method: DUAC® gel (1% clindamycin and 5% benzoyl peroxide marketed by Stiefel Laboratories, Inc.) and TAZORAC® cream (0.1% tazarotene marketed by Allergan, Inc.) have been successfully used to treat facial acne. However, these topical treatments are not approved for concomitant use. To study whether tazarotene is susceptible to oxidative decomposition by benzoyl peroxide, an in vitro laboratory study was conducted wherein a mixture of DUAC gel and TAZORAC cream was prepared.
Samples were prepared by taking equal portions of DUAC gel and TAZORAC cream and mixing them thoroughly at room temperature with a spatula in a suitable container to form a uniform mixture. The initial samples were analyzed immediately by HPLC. The other samples were placed into an oven at 35° C. and removed for analysis after one, two, four, six and eight hours. An allowance was made for product evaporation over the course of the study.

[8] = 1 μM initial concentration, Complete (with NADPH), 0 min
[9] = 1 μM initial concentration, Complete (with NADPH), 15 min
[10] = 1 μM initial concentration, Complete (with NADPH), 30 min
[11] = 1 μM initial concentration, Complete (with NADPH), 45 min
[12] = 1 μM initial concentration, Complete (with NADPH), 60 min
[13] = 1 μM initial concentration, Without NADPH, 0 min
[14] = 1 μM initial concentration, Without NADPH, 15 min
[15] = 1 μM initial concentration, Without NADPH, 30 min
[16] = 1 μM initial concentration, Without NADPH, 45 min
[17] = 1 μM initial concentration, Without NADPH, 60 min
[18] = 10 μM initial concentration, Complete (with NADPH), 0 min
[19] = 10 μM initial concentration, Complete (with NADPH), 15 min
[20] = 10 μM initial concentration, Complete (with NADPH), 30 min
[21] = 10 μM initial concentration, Complete (with NADPH), 45 min
[22] = 10 μM initial concentration, Complete (with NADPH), 60 min
[23] = 10 μM initial concentration, Without NADPH, 0 min
[24] = 10 μM initial concentration, Without NADPH, 15 min
[25] = 10 μM initial concentration, Without NADPH, 30 min
[26] = 10 μM initial concentration, Without NADPH, 45 min
[27] = 10 μM initial concentration, Without NADPH, 60 min

Structure (SMILES)	Test Article remaining, percent of initial concentration [4, 8]	Test Article remaining, percent of initial concentration [4, 9]	Test Article remaining, percent of initial concentration [4, 10]	Test Article remaining, percent of initial concentration [4, 11]	Test Article remaining, percent of initial concentration [4, 12]	Test Article remaining, percent of initial concentration [4, 13]	Test Article remaining, percent of initial concentration [4, 14]	Test Article remaining, percent of initial concentration [4, 15]	Test Article remaining, percent of initial concentration [4, 16]	Test Article remaining, percent of initial concentration [4, 17]	Test Article remaining, percent of initial concentration [4, 18]	Test Article remaining, percent of initial concentration [4, 19]	Test Article remaining, percent of initial concentration [4, 20]	Test Article remaining, percent of initial concentration [4, 21]	Test Article remaining, percent of initial concentration [4, 22]	Test Article remaining, percent of initial concentration [4, 23]	Test Article remaining, percent of initial concentration [4, 24]	Test Article remaining, percent of initial concentration [4, 25]	Test Article remaining, percent of initial concentration [4, 26]	Test Article remaining, percent of initial concentration [4, 27]	also measured
CCOC(=O)c1ccc(C#Cc2ccc3c(c2)C(C)(C)CC(OC(=O)c2cccnc2)S3)nc1 (centres unmarked) [Compound 7, 6-[4,4-Dimethyl-2-(pyridine-3-carbonyloxy)thiochroman-6-ylethynyl]nicotinic acid ethyl ester]	–	–	–	–	–	–	–	–	–	–	–	–	–	–	–	–	–	–	–	–	less reactive with BPO than tazarotene and hydroxy tazarotenic acid [1]: ~25 times; fold induction at 2830 µM ([2]; read-out: K4 Fold Change vs Untreated/OD controls (upregulation)): 23; fold induction at 2830 µM ([2]; read-out: K13 Fold Change vs Untreated/OD controls (upregulation)): 8; fold induction at 2830 µM ([2]; read-out: K19 Fold Change vs Untreated/OD controls (upregulation)): 17
CC1(C)CCSc2ccc(C#Cc3ccc(C(=O)O)cn3)cc21 [Tazarotenic acid]	100%	89.9%	82.0%	75.8%	68.0%	100%	100%	101%	102%	101%	100%	93.1%	88.6%	77.8%	77.4%	100%	102%	99.0%	106%	102%	detection of tazarotenic acid ([3]; under these experimental conditions): not detected; k constant ([4]; 1 μM, Complete): −0.0064; k constant ([4]; 1 μM, Without NADPH): 0.0003; k constant ([4]; 10 μM, Complete): −0.0047; k constant ([4]; 10 μM, Without NADPH): 0.0006; metabolized by human liver microsomes ([4]; in the absence of NADPH): not metabolized; metabolized by human liver microsomes to tazarotenic acid sulfoxide ([4]; in the presence of NADPH): slowly metabolized; half-life at 1 µM (in vitro; Complete): 108 min; half-life at 10 µM (in vitro; Complete): 147 min
CCOC(=O)c1ccc(C#Cc2ccc3c(c2)C(C)(C)CC[S+]3[O-])nc1 (centres unmarked) [Tazarotene sulfoxide, 6-(4,4-Dimethyl-1-oxo-1λ^4-thiochroman-6-ylethynyl)nicotinic acid ethyl ester]	100%	25.6%	8.86%	4.24%	2.17%	100%	27.9%	8.40%	2.72%	1.11%	100%	30.9%	11.4%	4.80%	2.70%	100%	30.4%	8.96%	2.98%	1.18%	concentration in human plasma ([5]; 0 hour): 36.2 ng/mL; concentration in human plasma ([5]; 2 hours): 34.0 ng/mL; concentration in human plasma ([5]; 4 hours): 32.2 ng/mL; concentration in human plasma ([5]; 8 hours): 31.9 ng/mL; concentration in rat plasma ([6]; 0 hour): 34.1 ng/mL; concentration in rat plasma ([6]; 2 hours): <LOD; concentration in rat plasma ([6]; 4 hours): <LOD; identified in the epidermis and dermis ([3]; after 2 hours of application of the DUAC/TAZORAC mixture to the skin): identified in the epidermis and dermis; quantity in stability samples at the 6 hour time point relative to the 2 hour time point ([3]; mixture of DUAC gel and TAZORAC cream retained for stability testing): doubled; k constant ([4]; 1 μM, Complete): −0.0689; k constant ([4]; 1 μM, Without NADPH): −0.0779; k constant ([4]; 10 μM, Complete): −0.0647; k constant ([4]; 10 μM, Without NADPH): −0.0763; half-life at 1 µM (in vitro; Complete): 10.1 min; half-life at 1 µM (in vitro; Without NADPH): 8.9 min; half-life at 10 µM (in vitro; Complete): 10.7 min; half-life at 10 µM (in vitro; Without NADPH): 9.08 min; % Label Tazarotene Sulfoxide [7]: ~16 % Label
